Reference: US8058306B2, “Phenyl pyrrole aminoguanidine derivatives” (Action Pharma A/S, priority 2006, dated 2011)
“And” between values parts separate entries of the source, which are not always exact repeats. Identical values can stand only once. “Also recorded” adds a separate entry of the source. Like-named read-outs stand apart in the source and are kept apart here.

Experiment: Plasma kinetics in rat following intravenous and oral administration
Assay type: in vivo, Sprague Dawley rats
Conditions: male rats
Procedure: This study determined the intravenous pharmacokinetics and oral bioavailability of compound 1 of the invention (see FIG. 1A, structure no. 1), compound 2 of the invention (see FIG. 1D, structure no. 19) and compound 3 of the invention (see FIG. 1I, structure no. 53) following administration to Sprague Dawley rats at a dose level of 10 mg/kg.
Six groups of 3 male rats received either a single intravenous or single oral administration of compound 1, 2 or 3 of the invention at a dose level of 10 mg/kg. Blood samples were obtained at various times after dosing. Plasma samples were analysed for unchanged test item using a suitable LC-MS/MS method. Pharmacokinetic parameters were estimated from individual plasma concentrations.
Eighteen male rats each received either a single intravenous or a single oral administration of either compound 1, 2 or 3 at a dose level of 10 mg/kg. The formulation was orally administered to each animal by gastric gavage and intravenously administered to each animal via a tail vein. The dose was administered at a dose volume of 5 mL/kg. The formulations were administered to each animal according to the details in the following table:
Blood samples (ca 0.3 mL) were removed from the femoral vein of each animal into tubes containing lithium heparin as anticoagulant.
Blood samples were collected from 3 rats at the following times after dose administration: • 3, 6, 15, 45 min and 1.5, 2.5, 4, 6, 8, 24 h post dose. Oral Administration
Blood samples were collected from 3 rats at the following times after dose administration: • 5, 15, 45 min and 1.5, 2.5, 4, 6, 8, 24 h post dose. Processing of Blood Samples
Pharmacokinetic parameters of compound 1, 2 and 3 were derived by non-compartmental analysis using WinNonLin Pro version 5.0.1 (Pharsight 2005). The following parameters were derived, where appropriate, from the individual plasma concentration versus time profiles:
• F % The absolute oral bioavailability calculated as [AUC0-t (oral)*Dose(iv)/AUC0-t (iv)*Dose (oral)]*100 based on mean values derived after oral and intravenous administration Consideration was given to the estimation of λz and corresponding t1/2 values. Three or more points are required within the terminal phase for λz and t1/2 to be estimated. The following additional variables were tabulated to aid identification of potentially unreliable estimates of t1/2 and AUC:
Pharmacokinetic parameters were reported as geometric mean except Tmax which was reported as the median. Geometric coefficient of variation was calculated as: […]
Actual sampling times were used for all calculations of pharmacokinetic parameters. Plasma concentrations that were below the limit of quantification were taken as zero for the pharmacokinetic analysis.

[1] = oral 10 mg/kg, individual animals, acetate, 10 mg/kg

Cmax (male, Sprague Dawley, rat, plasma, po, 10 mg/kg, oral 10 mg/kg, Arithmetic Mean, read-out: Cmax): 104 ng/mL
Tmax (male, Sprague Dawley, rat, plasma, po, 10 mg/kg, oral 10 mg/kg, Arithmetic Mean, read-out: tmax): 6.65 h
AUC(0-t) (male, Sprague Dawley, rat, plasma, po, 10 mg/kg, oral 10 mg/kg, Geometric mean, read-out: AUC0-t): 1340 ng·h/mL
Cmax (male, Sprague Dawley, rat, plasma, po, 10 mg/kg, oral 10 mg/kg, Geometric mean, read-out: Cmax): 104 ng/mL
Tmax (male, Sprague Dawley, rat, plasma, po, 10 mg/kg, oral 10 mg/kg, Geometric mean, read-out: tmax): 6.34 h
AUC(0-t) (male, Sprague Dawley, rat, plasma, po, 10 mg/kg, oral 10 mg/kg, Median, read-out: AUC0-t): 1460 ng·h/mL
Cmax (male, Sprague Dawley, rat, plasma, po, 10 mg/kg, oral 10 mg/kg, Median, read-out: Cmax): 104 ng/mL
Tmax (male, Sprague Dawley, rat, plasma, po, 10 mg/kg, oral 10 mg/kg, Median, read-out: tmax): 7.97 h
AUC(0-inf) (male, Sprague Dawley, rat, plasma, po, 10 mg/kg, oral 10 mg/kg, individual animals): 1130 ng·h/mL
AUC(0-t) (male, Sprague Dawley, rat, plasma, po, 10 mg/kg, oral 10 mg/kg, individual animals, read-out: AUC0-t): 1500 ng·h/mL
Cmax (male, Sprague Dawley, rat, plasma, po, 10 mg/kg, oral 10 mg/kg, individual animals, read-out: Cmax): 106 ng/mL
MRT (male, Sprague Dawley, rat, plasma, po, 10 mg/kg, oral 10 mg/kg, individual animals, read-out: MRT): 7.86 h
half-life (male, Sprague Dawley, rat, plasma, po, 10 mg/kg, oral 10 mg/kg, individual animals, read-out: t1/2 (converted)): 4.61 h
Tmax (male, Sprague Dawley, rat, plasma, po, 10 mg/kg, oral 10 mg/kg, individual animals, read-out: tmax): 7.97 h
Tmax (male, Sprague Dawley, rat, plasma, po, 10 mg/kg, oral 10 mg/kg, from mean plasma concentrations, read-out: time post dose at which maximum plasma concentration was observed (tmax)): 8 h
half-life (male, Sprague Dawley, rat, plasma, po, 10 mg/kg, oral 10 mg/kg, read-out: apparent terminal half-life (converted)): 4.61 h
concentration at 0.08 h (male, Sprague Dawley, rat, plasma, po, 10 mg/kg, single oral 10 mg/kg, 0.08 h, individual animals, LLOQ 2.50 (Table X: * 5.0, ** 25, diluted samples), read-out: Sample Concentration in plasma): 2.66 ng/mL
concentration at 0.08 h (male, Sprague Dawley, rat, plasma, po, 10 mg/kg, single oral 10 mg/kg, 0.08 h, mean, read-out: Mean Concentration in plasma): 2.66 ng/mL
concentration at 0.25 h (male, Sprague Dawley, rat, plasma, po, 10 mg/kg, single oral 10 mg/kg, 0.25 h, individual animals, read-out: Sample Concentration in plasma): 6.53 ng/mL
concentration at 0.25 h (male, Sprague Dawley, rat, plasma, po, 10 mg/kg, single oral 10 mg/kg, 0.25 h, mean of 3, read-out: Mean Concentration in plasma): 7.29 ng/mL
concentration at 0.75 h (male, Sprague Dawley, rat, plasma, po, 10 mg/kg, single oral 10 mg/kg, 0.75 h, mean of 3, read-out: Mean Concentration in plasma): 17.3 ng/mL
concentration at 1.5 h (male, Sprague Dawley, rat, plasma, po, 10 mg/kg, single oral 10 mg/kg, 1.5 h, mean of 3, read-out: Mean Concentration in plasma): 39.1 ng/mL
concentration at 2.5 h (male, Sprague Dawley, rat, plasma, po, 10 mg/kg, single oral 10 mg/kg, 2.5 h, individual animals, read-out: Sample Concentration in plasma): 65.9 ng/mL
concentration at 2.5 h (male, Sprague Dawley, rat, plasma, po, 10 mg/kg, single oral 10 mg/kg, 2.5 h, mean of 3, read-out: Mean Concentration in plasma): 60.1 ng/mL
concentration at 4 h (male, Sprague Dawley, rat, plasma, po, 10 mg/kg, single oral 10 mg/kg, 4 h, individual animals, read-out: Sample Concentration in plasma): 102 ng/mL
concentration at 4 h (male, Sprague Dawley, rat, plasma, po, 10 mg/kg, single oral 10 mg/kg, 4 h, mean of 3, read-out: Mean Concentration in plasma): 90.3 ng/mL
concentration at 6 h (male, Sprague Dawley, rat, plasma, po, 10 mg/kg, single oral 10 mg/kg, 6 h, individual animals, read-out: Sample Concentration in plasma): 72.3 ng/mL
concentration at 6 h (male, Sprague Dawley, rat, plasma, po, 10 mg/kg, single oral 10 mg/kg, 6 h, mean of 3, read-out: Mean Concentration in plasma): 86.5 ng/mL
concentration at 8 h (male, Sprague Dawley, rat, plasma, po, 10 mg/kg, single oral 10 mg/kg, 8 h, individual animals, LLOQ 2.50, read-out: Sample Concentration in plasma): 68.8 ng/mL
concentration at 8 h (male, Sprague Dawley, rat, plasma, po, 10 mg/kg, single oral 10 mg/kg, 8 h, mean, LLOQ 2.50, read-out: Mean Concentration in plasma): 92.9 ng/mL
concentration at 24 h (male, Sprague Dawley, rat, plasma, po, 10 mg/kg, single oral 10 mg/kg, 24 h, individual animals, LLOQ 2.50, read-out: Sample Concentration in plasma): 5.35 ng/mL
concentration at 24 h (male, Sprague Dawley, rat, plasma, po, 10 mg/kg, single oral 10 mg/kg, 24 h, mean, LLOQ 2.50, read-out: Mean Concentration in plasma): 7.68 ng/mL
mean absorption time (MAT) (oral 10 mg/kg): 2.10 h
MAT (oral 10 mg/kg, individual animals): 2.10 h
AUC(0-t) [1]: 1094 ng·h/mL and 1460 ng·h/mL
Cmax [1]: 102 ng/mL
Tmax [1]: 4.00 h and 7.98 h
maximum observed plasma concentration, mean value (oral 10 mg/kg, at tmax): 92.9 ng/mL
Sample Concentration in plasma (single intravenous 10 mg/kg, 0.05 h, individual animals, acetate, 10 mg/kg): 1650 ng/mL and 3630 ng/mL and 1460 ng/mL
Sample Concentration in plasma (single intravenous 10 mg/kg, 0.1 h, individual animals, acetate, 10 mg/kg): 1220 ng/mL and 1200 ng/mL
Sample Concentration in plasma (single intravenous 10 mg/kg, 0.25 h, individual animals, acetate, 10 mg/kg): 830 ng/mL and 696 ng/mL
Sample Concentration in plasma (single intravenous 10 mg/kg, 0.75 h, individual animals, acetate, 10 mg/kg): 332 ng/mL and 402 ng/mL
Sample Concentration in plasma (single intravenous 10 mg/kg, 1.5 h, individual animals, acetate, 10 mg/kg): 236 ng/mL and 340 ng/mL
Sample Concentration in plasma (single intravenous 10 mg/kg, 2.5 h, individual animals, acetate, 10 mg/kg): 202 ng/mL and 259 ng/mL
Sample Concentration in plasma (single intravenous 10 mg/kg, 4 h, individual animals, acetate, 10 mg/kg): 208 ng/mL and 238 ng/mL
Sample Concentration in plasma (single intravenous 10 mg/kg, 6 h, individual animals, acetate, 10 mg/kg): 172 ng/mL and 168 ng/mL
Sample Concentration in plasma (single intravenous 10 mg/kg, 8 h, individual animals, LLOQ 2.50, acetate, 10 mg/kg): 151 ng/mL and 135 ng/mL and 5.04 ng/mL
Sample Concentration in plasma (single intravenous 10 mg/kg, 24 h, individual animals, LLOQ 2.50, acetate, 10 mg/kg): 13.2 ng/mL and 16.8 ng/mL and 30.7 ng/mL
Sample Concentration in plasma (single oral 10 mg/kg, 0.08 h, individual animals, LLOQ 2.50 (Table X: * 5.0, ** 25, diluted samples), acetate, 10 mg/kg): *<LLOQ; also recorded: **<LLOQ
Sample Concentration in plasma (single oral 10 mg/kg, 0.25 h, individual animals, acetate, 10 mg/kg): 5.92 ng/mL and 9.43 ng/mL
Sample Concentration in plasma (single oral 10 mg/kg, 0.75 h, individual animals, acetate, 10 mg/kg): 11.8 ng/mL and 15.9 ng/mL and 24.1 ng/mL
Sample Concentration in plasma (single oral 10 mg/kg, 1.5 h, individual animals, acetate, 10 mg/kg): 20.5 ng/mL and 52.1 ng/mL and 44.6 ng/mL
Sample Concentration in plasma (single oral 10 mg/kg, 2.5 h, individual animals, acetate, 10 mg/kg): 57.1 ng/mL and 57.2 ng/mL
Sample Concentration in plasma (single oral 10 mg/kg, 4 h, individual animals, acetate, 10 mg/kg): 79.4 ng/mL and 89.4 ng/mL
Sample Concentration in plasma (single oral 10 mg/kg, 6 h, individual animals, acetate, 10 mg/kg): 98.4 ng/mL and 88.8 ng/mL
Sample Concentration in plasma (single oral 10 mg/kg, 8 h, individual animals, LLOQ 2.50, acetate, 10 mg/kg): 104 ng/mL and 106 ng/mL
Sample Concentration in plasma (single oral 10 mg/kg, 24 h, individual animals, LLOQ 2.50, acetate, 10 mg/kg): 7.50 ng/mL and 10.2 ng/mL
SMILES: N=C(N)NN=CC=Cc1cccn1-c1ccc(Cl)cc1 [Compound 1, [1-(4-chlorophenyl)-1H-pyrrol-2-yl-allylideneamino]guanidinium acetate]
adverse effects (single intravenous or oral administration, 10 mg/kg, acetate): No adverse effects; also recorded: No adverse affects
